According to patent US20220354835A1, “COMPOUNDS FOR DEGRADING TAU PROTEIN AGGREGATES AND USES THEREOF” (Aprinoia Therapeutics Limited, priority 2019, published 2022):

biological target: T1, heparin-induced aggregated tau (aTau), full-length 2N4R human Tau (Homo sapiens, UniProt P10636); experiment: In vitro fluorometric aTau binding assay; settings: 0.04 μM aTau, serially diluted compound 10 to 0.00017 μM, 37° C. 1 hour, fluorescence
T1 construct: transformed with a full-length 2N4R tau expression plasmid; made in house; host or cells: E. coli BL21
Experimental: (§1) (A) Expression and purification of human Tau: 1 mM IPTG (Sangon Biotech, Cat. No A100487) was used to induce production of tau by bacteria (BL21, Invitrogen, Cat. No C600003) transformed with a full-length 2N4R tau expression plasmid. After 3 hours, cell pellet was resuspended in lysis buffer (100 mM PIPES, 1 mM EGTA, 1 mM MgSO4, pH 6.8) and lysed by sonication followed by centrifugation (15,000 rpm, 15 min, 4° C.). The supernatant was then placed in a boiling water bath for 20 min, followed by centrifugation (15,000 rpm, 15 min, 4° C.). Supernatant was loaded onto a Q-Sepharose® Fast Flow column (GE healthcare, Cat. No 17-0510-01), the flow-through fraction was loaded onto an SP-Sepharose® Fast Flow column (GE healthcare, Cat. No 17-0729-01), and tau protein was eluted with elution buffer (100 mM PIPES, 1 M NaCl, 1 mM EGTA, 1 mM MgSO4, 0.2 M NaCl, pH 6.8). Collected fractions of tau-containing eluates were pooled, concentrated and dialyzed against HEPES buffer (25 mM HEPES, 0.1 mM EDTA, 0.5 mM DTT, 100 mM NaCl, pH 7.2) and stored at −80° C. in small aliquots until use. Protein concentration was determined by UV absorption.
(§2) (B) Preparation of heparin-induced aggregated tau (aTau): 2 μM of tau prepared in 30 mM Tris-HCl, pH 7.5 buffer was incubated in tube with 15 μM heparin (Sigma, Cat. No H3149) at 37° C. for 24 hours.
(D) In vitro fluorometric aTau binding assays: 2 μM aTau was diluted to 0.04 μM with 30 mM Tris-HCl (pH 6.8), and then incubated with serially diluted compound (three-fold serial dilutions, from 10 to 0.00017 μM) in a 96-well plate (Corning, Cat. No 3573) at 37° C. for 1 hour. Fluorescence intensity (excitation/emission=370/500 nm) of APN-0729 was read by microplate spectrometer (EnSpire 2300, PerkinElmer). Compound Kd values were calculated using the following equation: Y=Bmax* X (Kd+X), where X is the concentration of compound; Y is the fluorescence signal of (compound+aTau)−(compound+DMSO); and Bmax is the maximum signal.

T1 sequence (P10636 1-441 isoform P10636-8): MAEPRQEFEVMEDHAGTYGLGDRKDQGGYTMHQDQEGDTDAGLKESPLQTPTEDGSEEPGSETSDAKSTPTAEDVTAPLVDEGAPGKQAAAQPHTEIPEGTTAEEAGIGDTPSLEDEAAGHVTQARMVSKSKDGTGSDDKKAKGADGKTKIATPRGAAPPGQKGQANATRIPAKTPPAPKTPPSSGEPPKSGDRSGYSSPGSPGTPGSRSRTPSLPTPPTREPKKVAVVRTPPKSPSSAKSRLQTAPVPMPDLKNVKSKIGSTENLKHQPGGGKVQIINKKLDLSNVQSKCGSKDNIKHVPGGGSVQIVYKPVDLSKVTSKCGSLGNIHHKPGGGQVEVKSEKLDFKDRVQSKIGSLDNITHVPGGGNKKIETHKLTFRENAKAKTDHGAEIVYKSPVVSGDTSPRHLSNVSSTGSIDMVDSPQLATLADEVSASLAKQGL

Structure (SMILES) | Kd
CN(C)c1ccc2nc(-c3ccc(-c4ccc(NCCOCCOCCOCCOCCOCCOc5ccc6c(c5)C(=O)N(C5CCC(=O)NC5=O)C6=O)nc4)cc3)sc2c1 (stereo not drawn) [Compound 160275, 2-[2,6-bis(oxo)piperidin-3-yl]-5-[2-[2-[2-[2-[2-[2-[[5-[4-[6-(dimethylamino)-1,3-benzothiazol-2-yl]phenyl]pyridin-2-yl]amino]ethoxy]ethoxy]ethoxy]ethoxy]ethoxy]ethoxy]isoindole-1,3-dione] | 230 nM

biological target: T1, heparin-induced aggregated tau (aTau), full-length 2N4R human Tau; experiment: PBB5 competition assay; format: binding; settings: 0.12 μM aTau, 0.1 μM PBB5, 37° C. 1 hour, PBB5 fluorescence 530/690 nm
Experimental: as §1, §2
(E) PBBS competition assay: 2 μM of aTau was diluted to 0.12 μM by […] (pH 6.8) and then incubated with 0.1 μM 2-(4-(2-(methylamino)pyridine-5-yl)-1,3-butadiene-1-yl)benzothiazole-6-ol (PBB5) and serially diluted compound (three-fold serial dilution, from 10 to 0.00017 μM) in a 96-well plate (Corning, Cat. No 3573) at 37° C. for 1 hour. Fluorescence intensity (excitation/emission=530/690 nm) of PBB5 was read by microplate spectrometer (EnSpire 2300, PerkinElmer). Percentage of competition was calculated using the following equation: (Max−well of compound alone)/(Max−Min)*100%, where Max=(Tau+PBB5) signals−(buffer+PBB5) signals; and Min=(buffer+PBB5) signals−(buffer+PBB5) signals.
The IC50 value of each compound was calculated with GraphPad Prism software using the “4 Parameter Logistic Model or Sigmoidal Dose-Response Model”:
Y=Bottom+(Top−Bottom)/(1+(IC50/×)^HillSlope)

Structure (SMILES) | IC50
CN(C)c1ccc2nc(-c3ccc(-c4ccc(NCCOCCOCCOCCOCCOCCOc5ccc6c(c5)C(=O)N(C5CCC(=O)NC5=O)C6=O)nc4)cc3)sc2c1 (stereo not drawn) [Compound 160275, 2-[2,6-bis(oxo)piperidin-3-yl]-5-[2-[2-[2-[2-[2-[2-[[5-[4-[6-(dimethylamino)-1,3-benzothiazol-2-yl]phenyl]pyridin-2-yl]amino]ethoxy]ethoxy]ethoxy]ethoxy]ethoxy]ethoxy]isoindole-1,3-dione] | 1290 nM

same assay, conditions: 0.12 μM aTau, 0.1 μM PBB5, compound up to 10 μM; read-out: Competition Assay with PBB5: Bmax (%)

Emax | Structure (SMILES)
100% | CN(C)c1ccc2nc(-c3ccc(-c4ccc(NCCOCCN5C(=O)CCC(N6C(=O)c7ccc(O)cc7C6=O)C5=O)nc4)cc3)sc2c1 (stereo not drawn) [Compound 160703, 2-[1-[2-[2-[[5-[4-[6-(dimethylamino)-1,3-benzothiazol-2-yl]phenyl]pyridin-2-yl]amino]ethoxy]ethyl]-2,6-bis(oxidanylidene)piperidin-3-yl]-5-oxidanyl-isoindole-1,3-dione]
100% | CN(C)c1ccc(-c2ccc(-c3cn4cc(OCCOCCN5C(=O)CCC(N6C(=O)c7ccc(O)cc7C6=O)C5=O)ccc4n3)cc2)c(F)n1 (stereo not drawn) [Compound 160570, 2-[1-[2-[2-[2-[4-[6-(dimethylamino)-2-fluoranyl-pyridin-3-yl]phenyl]imidazo[1,2-a]pyridin-6-yl]oxyethoxy]ethyl]-2,6-bis(oxidanylidene)piperidin-3-yl]-5-oxidanyl-isoindole-1,3-dione]

Structure (SMILES) | Emax
CN(C)c1ccc2nc(-c3ccc(-c4ccc(NCCOCCOCCOCCOCCOCCOc5ccc6c(c5)C(=O)N(C5CCC(=O)NC5=O)C6=O)nc4)cc3)sc2c1 (stereo not drawn) [Compound 160275, 2-[2,6-bis(oxo)piperidin-3-yl]-5-[2-[2-[2-[2-[2-[2-[[5-[4-[6-(dimethylamino)-1,3-benzothiazol-2-yl]phenyl]pyridin-2-yl]amino]ethoxy]ethoxy]ethoxy]ethoxy]ethoxy]ethoxy]isoindole-1,3-dione] | 96%

biological target: T2, Tau aggregates in P301L-Tau-FL-GFP HEK293 cells (Homo sapiens, UniProt P10636, P618L); experiment: Tau degradation assay (APNmAb005 ELISA-based Tau aggregation assay); format: cell-based; settings: 1 μM compound, APNmAb005 ELISA
T2 construct: express full-length human tau T40 (2N4R) carrying the P301L mutation with a GFP tag; expressed in transfected cells
Experimental: (A). Cell-based model of Tau inclusion formation: Six month old rTg4510 mouse brain lysates were used as the source of tau seeds, prepared as described in Example 26 above. P301L-Tau-FL-GFP HEK293 cells represent HEK293 cells express full-length human tau T40 (2N4R) carrying the P301L mutation with a GFP tag (P301L-Tau-FL-GFP). 1×10^6 of P301L-Tau-FL-GFP HEK293 cells were cultured on a 6-well plate in culture medium containing DMEM/F-12 (Gibco) supplemented with 10% fetal bovine serum (FBS) (Gibco), 1% Penicillin-Streptomycin (Gibco) and 0.5 mg/ml geneticin (Thermo Fisher Scientific) for 24 hours to reach 70-90% confluency, indicating the cells were ready for transfection. 50 μg of 6-month-old rTg4510 mouse brain lysate was diluted in 400 μL of serum free medium and mixed with 16 μL of lipofectamine 3000 reagent (Thermo Fisher Scientific) diluted in 400 μl of serum free medium. A solution mixture of rTg4510 brain lysate and lipofectamine 3000 was incubated at room temperature for 25 min. The culture media were removed, and then a solution mixture of rTg4510 lysate and lipofectamine 3000 was added to the cells for transfection. The solution mixture was incubated at room temperature for five hours, followed by medium change to 10% fetal bovine serum (FBS). After two-day incubation, Tau aggregates (Tau spots) were induced and images were acquired by ImageXpress Micro Confocal high-content imaging system (Molecular Devices) as described in Example 52 above. Analysis was performed by two customized modules in MetaXpress software (Molecular Devices) for aggregated tau analysis. Output included cell numbers, numbers of tau spots, average intensity of tau spots, and average size of tau spots.
(B). Compound treatment: 100 μL of 3×10^4 cells comprising Tau aggregates, prepared as described above in step (A), were plated on a 96-well plate coated with poly-D-lysine (BD Biosciences) and cultured for 24 hours. Compounds to be tested were dissolved in culture medium containing 0.1% DMSO. Each of test compounds in the concentration of 1, 0.2 and 0.04 μM was added to the cells comprising Tau aggregates and incubated at 37° C. for 24 hours. After that, culture medium was removed, cells were washed with PBS solution and then lysed using 30 μL of lysis buffer (PBS containing 0.3% Triton X-100 and 400 mM NaCl) for one hour at 4° C., and then cell lysate was diluted by 170 μl of PBS containing 400 mM NaCl. Cell lysate was filtrated by a […] filtration plate (Pall) and applied for Tau aggregation assay.
(C). Control cell lysate: control cell lysate was collected from non-seeded cells.
(D). ELISA-based Tau aggregation assay: APNmAb005 ELISA kit for Tau aggregation assay was designed and developed to detect abnormal tau aggregates in buffered solution or cell lysate by using anti-Tau APNmab005 as capture and detection antibody. This antibody is a highly specific antibody bound to human tau aggregates accumulated in mammalian cells. APNmAb005 is recited in PCT Patent Application No. PCT/M2020/057415, filed Aug. 5, 2020, which is incorporated herein by reference.
0.15 μg of APNmAb005 in 100 mM sodium carbonate buffer (pH 9.6) was coated on a high-binding polystyrene 96-well microplate (Greiner Bio-One) at 4° C. overnight. The microplate was washed with PBS followed by treatment with Intercept (PBS) blocking buffer (LI-COR) at room temperature for 2 hours. After that, the microplate was washed with PBS, and then the cell lysate with compound treatment, prepared as described above in step (C), was added into each well of the microplate and incubated at room temperature for 2 hours. The microplate was washed with PBS and then incubated with HRP-conjugated secondary antibody APNmAb005 at room temperature for 3 hours. HRP-conjugated secondary antibody APNmAb005 was prepared using HRP conjugation kit (Abcam,ab102890). The microplate was then washed with PBS and incubated with 100 μL of horseradish peroxidase (HRP) substrate at room temperature. […]

T2 sequence (P10636 1-441 isoform P10636-8 P301L): as the sequence (P10636 1-441 isoform P10636-8) above, with P301L counted along it

Optical Density (O.D.) 450 value decrease compared to vehicle (reduction of Tau aggregates) | Structure (SMILES)
20% | CN(C)c1ccc(-c2ccc(-c3cn4cccc(OCCOCCOc5ccc6c(c5)CN(C5CCC(=O)NC5=O)C6=O)c4n3)cc2)cn1 (stereo not drawn) [Compound 162842]

same assay, conditions: 1 μM of compound, 24 hours, P301L-Tau-FL-GFP HEK293 cells seeded with rTg4510 brain lysate; read-out: Activity (reduction of tau aggregates)

Structure (SMILES) | inhibition at 1 µM
COc1ccc2nc(-c3ccc(-c4ccc(NCCOCCOc5cccc6c5C(=O)N(C5CCC(=O)NC5=O)C6=O)nc4)cc3)sc2c1 (stereo not drawn) [Compound 177038] | < 10%
COc1ccc2nc(-c3ccc(-c4ccc(NCCOCCOc5ccc6c(c5)C(=O)N(C5CCC(=O)NC5=O)C6=O)nc4F)cc3)cn2c1 (stereo not drawn) [Compound 161215, 2-[2,6-bis(oxo)piperidin-3-yl]-5-[2-[2-[[6-fluoro-5-[4-(6-methoxyimidazo[1,2-a]pyridin-2-yl)phenyl]pyridin-2-yl]amino]ethoxy]ethoxy]isoindole-1,3-dione] | 10 to 20%
COc1ccc2nc(-c3ccc(-c4ccc(NCCOCCOCCOCCOCCOCCOc5ccc6c(c5)C(=O)N(C5CCC(=O)NC5=O)C6=O)nc4F)cc3)cn2c1 (stereo not drawn) [Compound 161409] | 10 to 20%
CN(C)c1ccc(-c2ccc(-c3cn4cc(OCCOCCN5C(=O)CCC(N6C(=O)c7ccc(O)cc7C6=O)C5=O)ccc4n3)cc2)c(F)n1 (stereo not drawn) [Compound 170350] | 10 to 20%

Other lines, results leading:

inhibition at 1 µM | Structure (SMILES)
10 to 20% | COc1ccc2nc(-c3ccc(-c4ccnc(NCCOCCOc5ccc6c(c5)CN(C5CCC(=O)NC5=O)C6=O)c4)cc3)cn2c1 (stereo not drawn) [Compound 162640, 3-[6-[2-[2-[[4-[4-(6-methoxyimidazo[1,2-a]pyridin-2-yl)phenyl]pyridin-2-yl]amino]ethoxy]ethoxy]-3-oxidanylidene-1H-isoindol-2-yl]piperidine-2,6-dione]
< 10% | CN(C)c1ccc(-c2ccc(-c3nc4ccc(NCCOCCOCCOCCOc5ccc6c(c5)C(=O)N(C5CCC(=O)NC5=O)C6=O)cc4s3)cc2)cn1 (stereo not drawn) [Compound 160939, 2-[2,6-bis(oxo)piperidin-3-yl]-5-[2-[2-[2-[2-[[2-[4-[6-(dimethylamino)pyridin-3-yl]-phenyl]-1,3-benzothiazol-6-yl]amino]ethoxy]ethoxy]ethoxy]ethoxy]isoindole-1,3-dione]
10 to 20% | CN(C)c1ccc(-c2ccc(-c3nc4ccc(OCCOCCOc5ccc6c(c5)CN(C5CCC(=O)NC5=O)C6=O)cc4s3)c(C(F)(F)F)c2)cn1 (stereo not drawn) [Compound 162903]
10 to 20% | CN(C)c1ccc(-c2ccc(-c3nc4ccc(OCCOCCOc5ccc6c(c5)CN(C5CCC(=O)NC5=O)C6=O)cc4s3)cc2)cn1 (stereo not drawn) [Compound 163123]
< 10% | CN(C)c1ccc2nc(-c3ccc(-c4ccc(NCCOCCOc5ccc6c(c5)CN(C5CCC(=O)NC5=O)C6=O)nc4)cc3C(F)(F)F)sc2c1 (stereo not drawn) [Compound 177031]
10 to 20% | CN(C)c1ccc(-c2ccc(-c3nc4ccc(OCCOCCOc5ccc6c(c5)CN(C5CCC(=O)NC5=O)C6=O)cc4o3)cc2)cn1 (stereo not drawn) [Compound 163365]
< 10% | CN(C)c1ccc(-c2ccc(-c3nc4ccc(OCCOCCOCCOc5ccc6c(c5)CN(C5CCC(=O)NC5=O)C6=O)cc4s3)c(C(F)(F)F)c2)cn1 (stereo not drawn) [Compound 174251]
> 20% | CN(C)c1ccc(-c2ccc(-c3cn4cccc(OCCOCCOc5ccc6c(c5)CN(C5CCC(=O)NC5=O)C6=O)c4n3)cc2)cn1 (stereo not drawn) [Compound 162842]
